The subject of series [1] is KRAS G12D mutant AGS cells. Put plainly: Proliferation inhibition of AGS cells, CellTiter-Glo assay. It is filed as cell-based, human. The settings on record: Homo sapiens, AGS, 72 h, 3 days, CTG; read-out: AGS IC50/nM. In a few lines:
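AGS cells at 1500 cells/well in F12K + 10% FBS were exposed for 3 days at 37°C to nine 3-fold dilutions from 10 µM top concentration, in duplicate. Viability read by CellTiter-Glo luminescence; IC50 (nM) from dose-response-inhibition fitting.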
(In general: ATP-based viability assays read luminescence as a measure of living cells.)

Series [2] concerns KRAS G12V mutant NCI-H727 cells. Kind of series: Proliferation inhibition of NCI-H727 cells, 3D CellTiter-Glo assay (Method B). The series is classed as cell-based, human. The following applies: Homo sapiens, NCI-H727, 120 h, Method B; 3D culture with 0.65% methylcellulose, 5 days, CTG; read-out: NCI-H727 IC50/nM. An outline of the steps:
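Cells grown in 3D medium (RPMI-1640, 10% FBS, 0.65% methylcellulose) overnight, then treated 5 days at 37 °C, 5% CO2 with 9 threefold dilutions from 10 µM top working concentration, duplicate wells. CellTiter-Glo luminescence read; IC50 (nM) fitted by dose-response-inhibition equation.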

Series [3] in a line: in vivo. The following applies: mouse, po, 20 mg/kg.
Protocol: Male CD-1 mice, aged 6-8 weeks, were purchased from Zhejiang Vital River Laboratory Animal Co., Ltd.
For the PO administration group, compounds were formulated in 0.5% Tween 80 and 99.5% (0.5%MC (400cp)) vehicle or 0.5%MC (400cp) vehicle to a final concentration of 1 mg/mL or 2 mg/mL for each compound. The drug formulation was administered to CD-1 mice via gavage at a dose of 10 mL/kg. Blood samples were collected from the submandibular vein or other suitable means at 15 min, 30 min, 1 h, 2 h, 4 h, 6 h, 8 h, and 24 h after administration. The blood samples were centrifuged at low temperature for 5 minutes, and the plasma was collected and stored at -80°C for analysis.
10 µL of plasma sample was taken, 200 µL of methanol containing an internal standard as a precipitant was added to precipitate plasma proteins, the compounds to be tested in the plasma was extracted, centrifuged at low temperature, and 10 µL of the supernatant was injected. The drug concentration in blood plasma was analyzed by LC-MS/MS. The pharmacokinetic parameters were calculated using Winnonlin based on the blood drug concentration data at different time points.
Series [4] has as its system human lung cancer cells NCI-H441 with KRAS-G12V mutation. Put plainly: Antitumor effect in NCI-H441 subcutaneous xenograft model. The series is classed as in vivo, NU/NU mice. The settings on record: 20 mpk, PO; for Tumor volume (mm^3) (day 16): BID×17; for TGI%: BID×17, day 16. Here is the method: NCI-H441 cells were purchased from ATCC (catalog number: HTB-174). Male NU/NU mice were purchased from Jiangsu Jicui Yaokang Biotechnology Co., Ltd.
NCI-H441 cells were cultured in RPMI-1640 medium containing 10% FBS. Cells in the logarithmic growth phase were collected and resuspended in PBS to an appropriate concentration for subcutaneous tumor inoculation in mice. Experimental mice were subcutaneously inoculated in the right posterior back at a seeding density of 1×10^6 cells/mouse+Matrigel, with a seeding volume of 0.1 mL. When the average tumor volume reached ~150 mm^3, mice were randomly assigned to groups based on tumor size and body weight for drug administration. Drug administration began immediately after grouping, and the day of administration was considered day 0. The drug was administered to the mice twice daily via gavage at doses of 10 mpk, 20 mpk, 30 mpk, or a solvent control (0.5% Tween 80+99.5% of 0.5% MC (400 cp) or 0.5% MC (400 cp)). During the experiment, mouse body weight and tumor size were measured twice weekly. Tumor size was calculated using the formula: Tumor volume (mm^3)=0.5×(Tumor long diameter × Tumor short diameter^2). Relative tumor inhibition rate (TGI) (%): TGI%=[1-(Average tumor volume at the end of treatment in a given treatment group - Average tumor volume at the start of treatment in the treatment group) / (Average tumor volume at the end of treatment in the solvent control group - Average tumor volume at the start of treatment in the solvent control group)] × 100%.

Series [5] concerns human pancreatic cancer cells HPAC. The settings on record: po, 20 mg/kg, 408 h.
Protocol: The following materials were used in this experiment: NOD/SCID mice, 6-8 weeks old, female, Jiangsu Jicui Yaokang Biotechnology Co., Ltd.; HPAC cells (carrying KRas G12D mutant protein, ATCC); Captisol (Wuhan Fengyao Tonghui Chemical Products Co., Ltd., Cas#182410-00-0); sodium acetate (aladdin) MC (sigma, 9004-67-5).
The experiment was conducted as follows: 6- to 8- week-old female NOD/SCID mice were subcutaneously inoculated with 1×10^7 HPAC cells in their right posterior back, with an inoculation volume of 0.1 mL. When the tumor reached an average volume of 150 mm^3, mice were randomly assigned to groups based on tumor size and body weight for drug administration. The day of drug administration was considered day 0. The test compound was administered by gavage to four mice in each group, while the control group received an equal volume of the solvent via gavage.
During the experiment, tumor volume and body weight were measured twice a week. Tumor volume was calculated using the formula: Tumor volume (mm^3)=0.5×(tumor long diameter×tumor short diameter^2). The mean tumor inhibition rate (TGI%) was calculated as follows: [(average tumor volume in the control group-average initial tumor volume in the control group)-(average tumor volume in the treatment group - average initial tumor volume in the treatment group)] / (average tumor volume in the control group - average initial tumor volume in the control group).
The subject of series [6] is KRAS G12S mutant A549 cells. Put plainly: Proliferation inhibition of A549 cells, 3D CellTiter-Glo assay. It is filed as cell-based. The settings on record: Homo sapiens, A549, 120 h, read-out: A549 IC50/nM. Here is the method:
A549 cells (Nanjing Kebai Biotechnology Co., Ltd., catalog number CBP60084, adherent, culture medium (F12K Nutrient Mixture+10%FBS (GIBCO, Cat#10091-148) at 37°C, 5%CO2, and 95% humidity.
3D Cell Viability Assay: Cells in the logarithmic growth phase were harvested and counted using a platelet counter. Cell viability was assessed using the trypan blue exclusion method to ensure a viability of over 90%. The 3D cell culture medium was prepared by adding 1% MC (methylcellulose, Sigma, Cat#M0512) F-12K medium and 10% FBS. The cell concentration was adjusted to approximately 7407 cells/mL using the 3D medium, and the methylcellulose (MC) content was set to 0.65%. Then, 135 µL of cell suspension was added to each 96-well clear, flat-bottomed, black-walled plate (Greiner, Cat#655096). The cells in the 96-well plates were cultured overnight at 37°C with 5% CO2.
Drug preparation for IC50 assay: A 10-fold drug solution was prepared using culture medium. […] of the drug solution was added to each well of a 96-well plate seeded with cells to achieve a working concentration of up to 10 µM, with a 3× dilution, and 9 concentrations. 2 replicate wells for each drug concentration were set. The cells in the drug-treated 96-well plates were cultured at 37°C and 5% CO^2 for additional5 days, then CTG assay (CellTiter-Glo® Luminescent Cell Viability Assay (Promega, Cat#G7573)) were performed.
The cell plate was equilibrated to room temperature for 30 minutes and the CTG reagent was thawed. 75 µL of CTG solution was added to each well for detection, and the plate was shaken on an orbital shaker for 5 minutes to lyse the cells. The cell plate was placed at room temperature for 25 minutes to stabilize the cryo-luminescence signal and the cryo-luminescence value was read (EnVision® multi-plate reader, PerkinElmer#2105).
Data was analyzed using GraphPad Prism software. The dose-response-inhibition equation was used to fit the data to obtain the dose-response curve, and the IC50 value (nM) was calculated accordingly. [formula]

Results on four compounds are retold here after patent EP4775577A1, “RAS INHIBITOR” (Tyligand Bioscience (Shanghai) Limited, priority 2023, dated 2025).

The term AUC(0-t) denotes exposure summed from dosing to a finite time, without extrapolation to infinity. Lower therefore signals less exposure. Take `CCN1CC/C(=C\F)[C@](C)(COc2nc(N3Cc4c(COC)c(C(=O)N(C)C)nn4CC[C@@H]3C)c3cc(C(F)(F)F)c(-c4c(F)ccc5sc(N)c(C#N)c45)c(F)c3n2)C1` (single isomer, unassigned) [Example 232A]: the IC50 in series [1] and in series [2] was < 1.5 nM in each case. In series [3], this compound had an AUC(0-t) at 8 h of 1520 ng·h/mL.

For `[2H]C([2H])([2H])N1CC/C(=C\F)[C@](C)(COc2nc(N3Cc4cc(C(=O)N(C)C)nn4CC[C@@H]3C)c3cc(C(F)(F)F)c(-c4c(F)ccc5sc(N)c(C#N)c45)c(F)c3n2)C1` (single isomer, unassigned) [Example 247A], the IC50 in series [1] is < 1.5 nM. For the same compound, the IC50 in series [2] is < 1.5 nM. Moreover, in series [4], the “Tumor volume (mm^3) (day 16)” value came out at 162 mm^3 and the TGI% was 97%. In addition, in series [5], the “TGI%” value is 98% and the “Tumor volume (mm^3) (day 17)” value is 161 mm^3.

On to `CCc1cc2c(N3Cc4cc(C(=O)N(C)C)nn4CC[C@@H]3C)nc(OC[C@]3(C)CN(CC)CC/C3=C\F)nc2c(F)c1-c1c(F)ccc2sc(N)c(C#N)c12` (single isomer, unassigned) [Example 175A], for which the IC50 in series [1] was < 1.5 nM; in series [2], < 1.5 nM; in series [6], 23.3 nM. The “Tumor volume (mm^3) (day 16)” value in series [4] worked out at 266 mm^3. This compound also registered a TGI% in series [4] of 73%.

For the compound `[2H]C([2H])([2H])N1CCC(=CF)C(C)(COc2nc(N3CCCn4nc(C(=O)N(C)C)c(Cl)c4C3)c3cc(CC)c(-c4c(F)ccc5sc(N)c(C#N)c45)c(F)c3n2)C1` (atropisomer, axis not shown) [Example 265A], the IC50 in series [1] is < 1.5 nM. Also, the IC50 in series [2] turned out to be 2.8 nM. Moreover, in series [4], the “Tumor volume (mm^3) (day 16)” value is reported as 330 mm^3 and the TGI% was 57%. In series [5], the “TGI%” value is on record as 80% and the “Tumor volume (mm^3) (day 17)” value is given as 237 mm^3.
